Publication PMC5462101 (Future medicinal chemistry, 2015)

Columns and labels:
[1] = target: T1, soybean lipoxygenase (Glycine max, UniProt P08170); assay: Inhibition of soybean lipoxygenase; format: biochemical; details: for IC50: sodium linoleate 0.1 mM, read-out: Lipoxygenase inhibitory activity (IC50); for inhibition at 100 µM: compound at 100 µM, read-out: Lipoxygenase inhibitory activity (% at 100 µM)
T1 construct: purchased Sigma
T1 sequence (P08170 1-839): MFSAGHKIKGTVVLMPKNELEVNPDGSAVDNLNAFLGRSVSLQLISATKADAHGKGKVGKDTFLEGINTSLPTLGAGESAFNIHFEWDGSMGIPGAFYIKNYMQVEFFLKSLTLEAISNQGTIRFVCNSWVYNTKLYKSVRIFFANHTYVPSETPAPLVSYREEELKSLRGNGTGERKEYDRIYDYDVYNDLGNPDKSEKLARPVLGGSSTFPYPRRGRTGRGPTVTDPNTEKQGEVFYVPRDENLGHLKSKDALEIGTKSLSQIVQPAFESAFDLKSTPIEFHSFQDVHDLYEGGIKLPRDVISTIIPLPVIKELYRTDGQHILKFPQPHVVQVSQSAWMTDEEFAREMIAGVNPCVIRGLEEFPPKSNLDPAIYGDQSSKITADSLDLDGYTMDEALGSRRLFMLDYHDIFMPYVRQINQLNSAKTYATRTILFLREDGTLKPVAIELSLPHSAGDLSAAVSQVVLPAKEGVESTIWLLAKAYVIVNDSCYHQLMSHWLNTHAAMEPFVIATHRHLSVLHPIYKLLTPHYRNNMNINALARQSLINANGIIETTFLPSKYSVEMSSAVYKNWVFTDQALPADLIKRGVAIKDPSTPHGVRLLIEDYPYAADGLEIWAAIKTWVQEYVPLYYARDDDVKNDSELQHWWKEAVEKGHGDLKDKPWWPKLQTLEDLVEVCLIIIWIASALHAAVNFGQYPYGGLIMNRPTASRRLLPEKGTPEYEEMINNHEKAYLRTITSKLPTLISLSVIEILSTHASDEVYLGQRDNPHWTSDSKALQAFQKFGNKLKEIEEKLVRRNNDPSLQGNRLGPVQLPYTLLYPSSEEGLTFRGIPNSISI
Description: The substituted pteridines prepared were assayed for inhibition of soybean lipoxygenase (Table 1) (Supplementary Information). Many studies have used readily obtainable soybean lipoxygenase, which is a homologue of mammalian lipoxygenase and well examined. The availability of soybean LOX and its well-characterized crystal structure led to its use in this study.
Determination of soybean lipoxygenase inhibition
A solution in DMSO of each compound to be tested was incubated at room temperature with sodium linoleate (0.1 mM) and a solution of soybean lipoxygenase (EC 1.13.11.12) (1:9 x 10^4 w/v in saline, 0.2 mL, Sigma). The conversion of sodium linoleate to 13-hydroperoxylinoleic acid was monitored by observation at 234 nm and compared with the value of appropriate standard inhibitor (Table 1).
(§1) IC50 determinations. OriginPro 8 was used to determine IC50 values from the sigmoidal line fitted to a graph of log[concentration] against the average percentage inhibition from two independent experiments, with at least 6 different concentrations. The SEM is the calculated standard error in the IC50 value of the fitted line.

[2] = Reducing ability in DPPH assay; details: compound 100 μM
Description: Previous work has shown that pterins, their dihydro- and their tetrahydro-derivatives can each be antioxidants or pro-oxidants, depending on the particular conditions. In the present study, several assays were used to assess in vitro antioxidant activity in order to obtain representative information; each method involves the generation of a different radical.
Determination of reducing activity using 1,1-diphenyl-2-picrylhydrazyl radical (DPPH)
To a solution of DPPH in absolute ethanol was added an equal volume of the compound to be tested dissolved in DMSO (20 µL). From a stock solution (10 mM) was prepared a final solution of 100 µM for evaluation of the compounds. The absorbance at 517 nm was recorded after 20 and 60 min at room temperature (Table 2).

[3] = Competition with DMSO for hydroxyl radicals; details: compound at 100 µM, Fe3+/ascorbic acid, DMSO 33 mM
Description: Competition of the novel pteridine derivatives with dimethyl sulfoxide for hydroxyl radicals was measured. […] The majority of the derivatives were excellent scavengers of hydroxyl radicals with activity higher than the reference compound 6-hydroxy-2,5,7,8-tetramethylchroman-2-carboxylic acid (Trolox).
Competition of pteridine derivatives with DMSO for hydroxyl radicals
Hydroxyl radicals generated by the Fe^3+/ascorbic acid system were detected by determination of formaldehyde produced from the oxidation of DMSO, according to the procedure of Nash. The reaction mixture comprised ethylenediaminetetracetic acid (EDTA) (0.1 mM), Fe^3+ (167 μM), DMSO (33 mM) in phosphate buffer (50 mM, pH 7.4), ascorbic acid (10 mM) and the compound to be tested at 100 µM. After incubation at 37 °C for 30 min the mixture was quenched with aqueous trichloroacetic acid (17% w/v) (Table 2) and the percentage competition of the tested compounds with DMSO for hydroxyl radicals was determined (Table 2).

[4] = Inhibition of linoleic acid peroxidation (AAPH); details: linoleic acid peroxidation initiated by AAPH, 37 °C, pH 7.4
Source text: Azo compounds that generate free radicals through spontaneous thermal decomposition are useful for in vitro studies of free radical production. The water-soluble AAPH has been extensively used as a clean and controllable source of thermally produced alkylperoxyl free radicals. […] Evidently, the presence of 6,7-dimethyl groups on the pteridine ring greatly enhances protection against lipid peroxidation; the nature of the alkyl group and ring size on the 2-substituent has some, but much less, effect. […] The role of lipophilicity (as assessed from calculated clogP values; Table 1) is not clear, but substituent bulk plays a significant role.
Inhibition of linoleic acid peroxidation
Production of conjugated diene hydroperoxide by oxidation of linoleic acid in an aqueous dispersion was monitored at 234 nm. 2,2’-Azobis(2-amidinopropane) dihydrochloride (AAPH) was used as a free radical initiator. This assay was used to follow oxidative changes and to determine the inhibition of the peroxidation of sodium linoleate by each tested compound. A dispersion of sodium linoleate (16 mM, 10 μL) was added to the UV cuvette containing phosphate buffer (0.05 M, 0.93 mL) at pH 7.4 and kept in a thermostat at 37 °C. The oxidation reaction was initiated at 37 °C under air by the addition of AAPH solution (40 mM, 50 μL). Oxidation was carried out in the presence of aliquots (10 μL) of the tested compound. In the assay without antioxidant, lipid oxidation was measured in the presence of DMSO (10 μL). The rate of oxidation at 37 °C was monitored by recording the increase in absorption at 234 nm caused by conjugated diene hydroperoxide formation (Table 2).
as §1

| IC50 [1] | IC50 [4] | inhibition at 100 µM [1] | melting point | IC50 ([4]; listed as 24) | Structure (SMILES) | RA (%) 100μM 20 min [2] | RA (%) 100μM 60 min [2] | Hydroxyl radicals scavenged (%) [3] |
| --- | --- | --- | --- | --- | --- | --- | --- | --- |
| 100 ± 0.3 µM | 40 ± 0.8 µM | – | – | – | Cc1nc2nc(N3CCN(C)CC3)nc(N)c2nc1C [Compound 5b] | 0% | 13% | 94% |
| – | 0.5 ± 0.03 µM | 22.5 ± 0.1% | 107 to 109 °C | – | CN1CCN(c2nc(N)c3nc(-c4ccccc4)c(-c4ccccc4)nc3n2)CC1 [Compound 5c] | 10% | 6% | 100% |
| 5 ± 0.1 µM | 0.73 ± 0.2 µM | – | – | – | CN1CCN(c2nc(N3CCN(C)CC3)c3nccnc3n2)CC1 [Compound 9] | 8% | 14% | 96% |
| 5 ± 0.1 µM | 15 ± 0.2 µM | – | 139 to 140 °C | – | CCN1CCNc2nc(N3CCN(C)CC3)nc(N3CCN(C)CC3)c21 [Compound 10a] | 79% | 81% | 96% |
| 55 ± 0.2 µM | 10 ± 0.43 µM | – | – | – | CCN1CCN(CC)c2c1nc(N1CCN(C)CC1)nc2N1CCN(C)CC1 [Compound 10b] | 98% | 97% | 98% |
| 60 ± 0.3 µM | 0.33 ± 0.01 µM | – | – | – | OC1CCCN(c2nc(N3CCCC(O)C3)c3nccnc3n2)C1 (centres unmarked) [Compound 13] | 6% | 13% | 95% |
| – | 21 ± 0.9 µM | 40 ± 0.2% | – | – | COc1ccccc1CNc1nc(N2CCN(C)CC2)nc2nccnc12 [Compound 18b] | 13% | 20% | 90% |
| – | 10 ± 0.1 µM | 22.5 ± 0.2% | 127 to 128 °C | – | CN1CCN(c2nc(NCCc3ccccc3)c3nccnc3n2)CC1 [Compound 18c] | 11% | 18% | 97% |
| – | 0.33 ± 0.03 µM | 24 ± 0.3% | 174 to 175 °C | – | CN1CCN(c2nc(NCc3ccco3)c3nccnc3n2)CC1 [Compound 18e] | 10% | 17% | 94% |
| 88.5 ± 1.2 µM | 0.1 ± 0.01 µM | – | 89 to 90 °C | – | Cc1nc2nc(N3CCN(C)CC3)nc(NCc3cccs3)c2nc1C [Compound 18g] | 12% | 12% | 100% |
| 43 ± 0.7 µM | 20 ± 0.5 µM | – | 148 to 149 °C | – | CCN1CCN(c2nc(NCc3cccs3)c3nccnc3n2)CC1 [Compound 20a] | 4% | 11% | 92% |
| 62.5 ± 0.5 µM | 41 ± 0.3 µM | – | 130 to 131 °C | – | CN1CCCN(c2nc(NCc3cccs3)c3nccnc3n2)CC1 [Compound 20b] | 15% | 19% | 94% |
| 74 ± 3.5 µM | 0.32 ± 0.02 µM | – | – | ~0.3 µM | CN1CCN(c2nc(NCc3cccs3)c3nonc3n2)CC1 [Compound 23] | 16% | 18% | 94% |
| – | – | – | – | – | CC(Cc1ccc(O)c(O)c1)C(C)Cc1ccc(O)c(O)c1 (centres unmarked) [NDGA, Nordihydroguaiaretic acid, reference compound] | 81% | 83% | – |
| – | 55.5 µM | – | – | – | Cc1c(C)c2c(c(C)c1O)CCC(C)(C(=O)O)O2 (centres unmarked) [Trolox, 6-hydroxy-2,5,7,8-tetramethylchroman-2-carboxylic acid, reference compound] | – | – | 73% |
